Reference: patent EP0973746B1, “SUBSTITUTED 3-CYANO QUINOLINES” (Wyeth Holdings Corporation, priority 1997, dated 1998)
Values after ≈ are worked out from the molar mass of the structure shown.

Key:
[1] = target: epidermal growth factor receptor kinase (Homo sapiens, UniProt P00533); assay: biochemical
A2780DDP = assay: Inhibition of cancer cell growth as measured by cell number, A2780DDP; assay type: cell-based; settings: Homo sapiens; cell number, Sulforhodamine B, 48 hours exposure; Table 4; read-out: IC50 A2780DDP
B7474 = assay: Inhibition of cancer cell growth as measured by cell number, B7474; assay type: cell-based; settings: Homo sapiens; cell number, Sulforhodamine B, 48 hours exposure; Table 6; read-out: IC50 B7474
MIP = assay: Inhibition of cancer cell growth as measured by cell number, MIP; assay type: cell-based; settings: Homo sapiens; cell number, Sulforhodamine B, 48 hours exposure; Table 4; read-out: IC50 MIP
HL60 = assay: Inhibition of cancer cell growth as measured by cell number, HL60; assay type: cell-based; settings: Homo sapiens, HL-60; cell number, Sulforhodamine B, 48 hours exposure; Table 7; read-out: IC50 HL60
A431 [2] = assay: Inhibition of cell growth by incorporation of [3H]-thymidine, A431; assay type: cell-based, human; settings: Homo sapiens, A-431; [3H]-thymidine incorporation; A431; read-out: IC50 A431
LOX = assay: Inhibition of cancer cell growth as measured by cell number, LOX; assay type: cell-based, human; settings: Homo sapiens, LOX, 48 h, cell number, Sulforhodamine B, 48 hours exposure; Table 6; read-out: IC50 LOX;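 note: LOX cells served as a line with low or absent EGFR and HER2/neu expression, in contrast to receptor-overexpressing lines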
From the text: (§1) The cell lines were chosen since they overexpressed epidermal growth factor receptor (EGFR) (i.e. A431) or HER2/neu (SKBR3), or had little to no expression of the these receptors (SW620, LOX, MCF7).

NHEK = assay: Inhibition of cell growth by incorporation of [3H]-thymidine, NHEK; assay type: cell-based, human; settings: Homo sapiens, [3H]-thymidine incorporation, read-out: IC50 NHEK
CX1 = assay: Inhibition of cancer cell growth as measured by cell number, CX1; assay type: cell-based; settings: Homo sapiens, CX-1; cell number, Sulforhodamine B, 48 hours exposure; Table 4; read-out: IC50 CX1
DU145 = assay: Inhibition of cancer cell growth as measured by cell number, DU145; assay type: cell-based; settings: Homo sapiens, DU-145; cell number, Sulforhodamine B, 48 hours exposure; Table 7; read-out: IC50 DU145
SW620 = assay: Inhibition of cancer cell growth as measured by cell number, SW620; assay type: cell-based, human; settings: Homo sapiens, SW-620, 48 h, cell number, Sulforhodamine B, 48 hours exposure; Table 4; read-out: IC50 SW620;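 note: SW620 was included as a cell line with little or no EGFR or HER2/neu expression, in contrast to receptor-overexpressing lines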
From the text: as §1

A431 [3] = assay: Inhibition of cancer cell growth as measured by cell number, A431; assay type: cell-based, human; settings: Homo sapiens, A-431, 48 h, cell number, Sulforhodamine B, 48 hours exposure; Table 6; read-out: IC50 A431;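 note: human A431 line, picked because it overexpresses epidermal growth factor receptor (EGFR)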
From the text: as §1

LX1 = assay: Inhibition of cancer cell growth as measured by cell number, LX1; assay type: cell-based; settings: Homo sapiens, LX-1; cell number, Sulforhodamine B, 48 hours exposure; Table 6; read-out: IC50 LX1
CACO2 = assay: Inhibition of cancer cell growth as measured by cell number, CACO2; assay type: cell-based; settings: Homo sapiens, Caco-2; cell number, Sulforhodamine B, 48 hours exposure; Table 5; read-out: IC50 CACO2
SW948 = assay: Inhibition of cancer cell growth as measured by cell number, SW948; assay type: cell-based; settings: Homo sapiens, SW948; cell number, Sulforhodamine B, 48 hours exposure; Table 5; read-out: IC50 SW948
HCT15 = assay: Inhibition of cancer cell growth as measured by cell number, HCT15; assay type: cell-based; settings: Homo sapiens, HCT-15; cell number, Sulforhodamine B, 48 hours exposure; Table 5; read-out: IC50 HCT15
HTB161 = assay: Inhibition of cancer cell growth as measured by cell number, HTB161; assay type: cell-based; settings: Homo sapiens; cell number, Sulforhodamine B, 48 hours exposure; Table 4; read-out: IC50 HTB161
A549 = assay: Inhibition of cancer cell growth as measured by cell number, A549; assay type: cell-based; settings: Homo sapiens, A549; cell number, Sulforhodamine B, 48 hours exposure; Table 6; read-out: IC50 A549
A27805 = assay: Inhibition of cancer cell growth as measured by cell number, A27805; assay type: cell-based; settings: Homo sapiens; cell number, Sulforhodamine B, 48 hours exposure; Table 4; read-out: IC50 A27805
T47D = assay: Inhibition of cancer cell growth as measured by cell number, T47D; assay type: cell-based; settings: Homo sapiens, cell number, Sulforhodamine B, 48 hours exposure, Table 6, read-out: IC50 T47D
CCRF-CFM = assay: Inhibition of cancer cell growth as measured by cell number, CCRF-CFM; assay type: cell-based; settings: Homo sapiens; cell number, Sulforhodamine B, 48 hours exposure; Table 7; read-out: IC50 CCRF-CFM
LS174T = assay: Inhibition of cancer cell growth as measured by cell number, LS174T; assay type: cell-based; settings: Homo sapiens, cell number, Sulforhodamine B, 48 hours exposure, Table 5, read-out: IC50 LS174T
PC3 = assay: Inhibition of cancer cell growth as measured by cell number, PC3; assay type: cell-based; settings: Homo sapiens, PC-3; cell number, Sulforhodamine B, 48 hours exposure; Table 7; read-out: IC50 PC3
CCL228 = assay: Inhibition of cancer cell growth as measured by cell number, CCL228; assay type: cell-based; settings: Homo sapiens; cell number, Sulforhodamine B, 48 hours exposure; Table 5; read-out: IC50 CCL228
[4] = target: recombinant human MEK 1 (MAPKK) and recombinant human ERK2 (MAPK); assay: Mitogen Activated Protein Kinase (MAPK) assay, two component coupled MEK 1 / ERK2; assay type: biochemical; settings: separate entries for the same compound = evaluated more than one time;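 note: MEK 1-activated ERK2 phosphorylates MBP or Myc peptide with 33P-ATP, filter capture and scintillation counting, inhibitor preincubated with ERK2 30 min at 0 °C, inhibition relative to uninhibited control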
Method: To evaluate inhibitors of the MAP (mitogen activated protein) kinase a two component coupled standard pharmacological test procedure, which measures phosphorylation of a serine/threonine residue in an appropriate sequence in the substrate in the presence and absence of a putative inhibitor, was used. Recombinant human MEK 1 (MAPKK) was first used to activate recombinant human ERK2 (MAPK) and the activated MAPK (ERK) was incubated with substrate (MBP peptide or MYC peptide) in the presence of ATP, Mg^+2 and radiolabeled ^33P ATP. The phosphorylated peptide was captured on a P 81 phosphocellulose filter (paper filter or embedded in microtiter plate) washed and counted by scintillation methods.
The peptide substrates used in the assay are MBP, peptide substrate ([sequence]), or synthetic Myc substrate, ([sequence]•5 TFA. The recombinant enzymes used were prepared as GST fusion proteins of human ERK 2 and human MEK 1. Inhibitor samples were prepared as 10X stocks in 10% DMSO and an appropriate aliquot was used to deliver either 10 ug/ml for a single point screening dose or 100, 10, 1, and 0.1 uM final concentration for a dose response curve. Final DMSO concentrations were less than or equal to 1%.
The reaction was run as follows in 50 mM Tris kinase buffer, pH 7.4 in a reaction volume of 50 ul. The appropriate volume of kinase buffer and inhibitor sample was added to the tube. Appropriate dilution of enzyme was delivered to give 2-5 ug recombinant MAPK (Erk ) per tube. The inhibitor was incubated with MAPK (Erk) for 30 min at 0 deg. […] Recombinant Mek (MAPKK) ( 0.5-2.5 ug) or fully activated Mek (0.05-0.1 units) was added to activate the Erk and incubated for 30 min at 30° C. […] Samples were incubated at 30°C for 30 minutes and the reaction was stopped by adding 25 µl of ice cold 10 %TCA .After samples were chilled on ice for 30 min, 20 µl of sample was transferred onto P 81 phosphocellulose filter paper or appropriate MTP with embedded P 81 filter. Filter papers or MTP were washed 2 times with a large volume of 1% acetic acid, then 2 times with water. The filters or MTP were briefly air dried before addition of scintillant and samples were counted in the appropriate scintillation counter set up for reading ^33P isotope.
The raw data was captured as cpm. Sample replicates were averaged and corrected for background count. Mean cpm data was tabulated by group and % inhibition by a test compound was calculated as (corrected cpm control- corrected. cpm sample/control) X 100 = % inhibition.

COLO205 = assay: Inhibition of cancer cell growth as measured by cell number, COLO205; assay type: cell-based; settings: Homo sapiens, COLO 205; cell number, Sulforhodamine B, 48 hours exposure; Table 4; read-out: IC50 COLO205
LNCAP = assay: Inhibition of cancer cell growth as measured by cell number, LNCAP; assay type: cell-based; settings: Homo sapiens, cell number, Sulforhodamine B, 48 hours exposure, Table 7, read-out: IC50 LNCAP
MCF7 = assay: Inhibition of cancer cell growth as measured by cell number, MCF7; assay type: cell-based, human; settings: Homo sapiens, MCF7, 48 h, cell number, Sulforhodamine B, 48 hours exposure; Table 5; read-out: IC50 MCF7;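 note: MCF7 was included as a line with little or no EGFR or HER2/neu expression, in contrast to the receptor-overexpressing lines of the panel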
From the text: as §1

SKBR3 = assay: Inhibition of cancer cell growth as measured by cell number, SKBR3; assay type: cell-based, human; settings: Homo sapiens, SK-BR-3; cell number, Sulforhodamine B, 48 hours exposure; Table 7; read-out: IC50 SKBR3;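 note: SK-BR-3 cells were selected as a line overexpressing HER2/neu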
From the text: as §1

NEC = assay: Inhibition of cancer cell growth as measured by cell number, NEC; assay type: cell-based; settings: Homo sapiens; cell number, Sulforhodamine B, 48 hours exposure; Table 6; read-out: IC50 NEC

Chain of epidermal growth factor receptor kinase (P00533 25-1210): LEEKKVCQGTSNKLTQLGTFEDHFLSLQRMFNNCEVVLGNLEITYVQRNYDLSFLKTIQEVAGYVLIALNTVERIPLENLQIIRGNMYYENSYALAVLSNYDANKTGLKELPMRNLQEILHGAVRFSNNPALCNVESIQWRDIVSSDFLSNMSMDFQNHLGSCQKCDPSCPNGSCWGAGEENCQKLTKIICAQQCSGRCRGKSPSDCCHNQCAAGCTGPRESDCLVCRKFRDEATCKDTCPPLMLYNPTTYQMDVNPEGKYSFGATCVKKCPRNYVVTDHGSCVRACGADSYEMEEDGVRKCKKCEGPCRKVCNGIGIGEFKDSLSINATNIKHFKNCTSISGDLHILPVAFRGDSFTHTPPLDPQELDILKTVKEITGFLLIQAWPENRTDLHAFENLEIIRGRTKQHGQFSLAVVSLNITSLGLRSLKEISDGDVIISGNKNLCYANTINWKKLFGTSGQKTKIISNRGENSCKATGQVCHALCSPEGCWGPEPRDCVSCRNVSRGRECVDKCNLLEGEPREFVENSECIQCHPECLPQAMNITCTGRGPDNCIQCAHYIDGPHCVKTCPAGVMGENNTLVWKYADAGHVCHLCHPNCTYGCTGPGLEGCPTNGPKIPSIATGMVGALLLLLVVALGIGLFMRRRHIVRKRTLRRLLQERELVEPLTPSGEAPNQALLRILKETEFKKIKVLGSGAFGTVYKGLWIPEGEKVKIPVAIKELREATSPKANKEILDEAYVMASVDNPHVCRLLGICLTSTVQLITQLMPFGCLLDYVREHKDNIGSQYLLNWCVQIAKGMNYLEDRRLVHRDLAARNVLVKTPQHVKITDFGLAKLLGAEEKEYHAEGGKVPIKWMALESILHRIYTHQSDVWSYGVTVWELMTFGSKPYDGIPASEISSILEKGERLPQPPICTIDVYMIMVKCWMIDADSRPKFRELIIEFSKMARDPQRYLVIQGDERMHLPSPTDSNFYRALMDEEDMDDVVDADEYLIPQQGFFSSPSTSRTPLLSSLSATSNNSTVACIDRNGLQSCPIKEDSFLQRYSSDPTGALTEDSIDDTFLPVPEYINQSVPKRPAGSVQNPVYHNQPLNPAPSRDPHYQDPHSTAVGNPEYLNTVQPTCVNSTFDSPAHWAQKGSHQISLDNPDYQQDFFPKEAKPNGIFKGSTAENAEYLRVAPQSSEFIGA

| SMILES | IC50 [1] | IC50 (A2780DDP) | IC50 (B7474) | IC50 (MIP) | IC50 (HL60) | IC50 (A431 [2]) | IC50 (LOX) | IC50 (NHEK) | IC50 (CX1) | IC50 (DU145) | IC50 (SW620) | IC50 (A431 [3]) | IC50 (LX1) | IC50 (CACO2) | IC50 (SW948) | IC50 (HCT15) | IC50 (HTB161) | IC50 (A549) | IC50 (A27805) | IC50 (T47D) | other results |
| --- | --- | --- | --- | --- | --- | --- | --- | --- | --- | --- | --- | --- | --- | --- | --- | --- | --- | --- | --- | --- | --- |
| CC(=O)Nc1ccc2ncc(C#N)c(Nc3cccc(Br)c3)c2c1 [Example 16, N-[4-[(3-Bromophenyl)amino]-3-cyano-6-quinolinyl] acetamide] | 0.0015 µM | 0.596 µg/mL (≈ 1.56 µM) | 0.899 µg/mL (≈ 2.36 µM) | 0.534 µg/mL (≈ 1.4 µM) | 0.696 µg/mL (≈ 1.83 µM) | 1.8 µM | 0.316 µg/mL (≈ 0.828 µM) | 0.06 µM | 0.978 µg/mL (≈ 2.56 µM) | 0.113 µg/mL (≈ 0.297 µM) | > 100 µg/mL | 0.766 µg/mL (≈ 2.01 µM) | 0.644 µg/mL (≈ 1.69 µM) | 0.71 µg/mL (≈ 1.86 µM) | 0.928 µg/mL (≈ 2.44 µM) | 0.641 µg/mL (≈ 1.68 µM) | 0.667 µg/mL (≈ 1.75 µM) | 0.214 µg/mL (≈ 0.56 µM) | 0.602 µg/mL (≈ 1.58 µM) | 6.55 µg/mL (≈ 17.2 µM) | IC50 (CCRF-CFM): 0.729 µg/mL (≈ 1.91 µM); IC50 (LS174T): 0.434 µg/mL (≈ 1.14 µM); IC50 (PC3): 3.04 µg/mL (≈ 7.97 µM); IC50 (CCL228): 4.38 µg/mL (≈ 11.5 µM) |
| CCCC(=O)Nc1ccc2ncc(C#N)c(Nc3cccc(Br)c3)c2c1 [Example 17, N-[4-[(3-Bromophenyl)amino]-3-cyano-6-quinolinyl] butanamide] | 9 µM | 60.4 µg/mL (≈ 147 µM) | 95.7 µg/mL (≈ 234 µM) | 100 µg/mL (≈ 244 µM) | > 100 µg/mL | 25 µM | 74.2 µg/mL (≈ 181 µM) | 9 µM | 81.9 µg/mL (≈ 200 µM) | 7.81 µg/mL (≈ 19.1 µM) | > 100 µg/mL | 38.1 µg/mL (≈ 93 µM) | > 100 µg/mL | 5.63 µg/mL (≈ 13.8 µM) | > 100 µg/mL | 98.9 µg/mL (≈ 242 µM) | 7.89 µg/mL (≈ 19.3 µM) | > 100 µg/mL | 9.8 µg/mL (≈ 23.9 µM) | > 100 µg/mL | IC50 [4]: > 100 µM; IC50 (COLO205): > 100 µg/mL; IC50 (LNCAP): 90 µg/mL (≈ 220 µM); IC50 (CCRF-CFM): > 100 µg/mL; IC50 (LS174T): 87 µg/mL (≈ 213 µM); IC50 (PC3): > 100 µg/mL; IC50 (MCF7): 68.2 µg/mL (≈ 167 µM); IC50 (CCL228): > 100 µg/mL; IC50 (SKBR3): 79.7 µg/mL (≈ 195 µM); IC50 (NEC): > 100 µg/mL |
| N#Cc1cnc2ccc([N+](=O)[O-])cc2c1Nc1ccc(Br)c(Br)c1 [Example 20, 4-[(3,4-Dibromophenyl)amino]-6-nitro-3-quinolinecarbonitrile] | – | – | – | – | – | 35 µM | – | 0.65 µM | – | – | – | – | – | – | – | – | – | – | – | – | – |
